From patent US20090232909A1, “Method for determining physiological effects of hemoglobin” (priority 1999, published 2009)
Entries after “also recorded” stand apart in the source; their conditions may differ.

Tests used:
[1] = test system: myoglobin; conditions: cited from earlier work
[2] = test system: intact human erythrocytes; experiment: Distribution of NO groups in membrane and cytosolic fractions of RBCs exposed to NO; type: cell-based; conditions: 0.1 mM DIDS before NO, NO:heme 1:250
Method: RBCs derived from fresh venous blood and suspended in oxygen-purged phosphate-buffered saline (PBS) were exposed in gas-tight vials to NO, added as aliquots of oxygen-purged NO-saturated PBS to yield the specified NO:heme ratios based on spectrophotometric assessment of heme content. Exposure to NO was for 5 mins followed by rinses in PBS at 21% O2. RBCs were lysed in 10 mM MOPS, 0.1 mM DTPA, pH 7, followed by centrifugation at 20,000×g for 10 mins to produce membrane and cytosolic fractions, which were solubilized in 1% TX-100. Quantification of NO groups was by photolysis/chemiluminescence (McMahon, T. J. & Stamler, J. S., Meth. Enzymol. 301:99-114, 1999). SNO content was measured as NO removed by treating sample aliquots for 5 mins with HgCl2 at 5-fold molar excess over estimated thiol content (Gow, A. J. & Stamler, J. S., Nature 391:169-173, 1998; Gow, A. J. et al., Proc. Natl. Acad. Sci. USA 96:9027-9032, 1999; McMahon, T. J. & Stamler, J. S., Meth. Enzymol. 301:99-114, 1999). […]
Immunoprecipitation was carried out by incubation of TX-100 or NP-40 extracts with antibodies followed by protein G-Sepharose. […] Binding of SNO-Hb to IOVs was assessed in 10 mM MOPS buffer, pH 7, at room temperature and 21% O2. Incubation was for 15 mins before IOVs were solubilized in 1% TX-100, and heme content was assessed spectrophotometrically. […]

Structure (SMILES)	rate of NO binding to ferrous myoglobin [1]	rate of NO oxidation of oxymyoglobin [1]	effect on SNO in the membrane fraction [2]	effect on net formation of NO-liganded Hb (total NO incorporated by RBCs) [2]
[N]=O [NO, nitric oxide]	2.5e+07 M⁻¹ s⁻¹	3.4×10^7 M^−1 sect^−1		
O=S(=O)(O)c1cc(N=C=S)ccc1C=Cc1ccc(N=C=S)cc1S(=O)(=O)O [DIDS, 4,4′-diisothiocyanatostilbene-2,2′-disulfonic acid]			greatly decreased; also recorded: substantially decreases	did not reduce; also recorded: does not reduce
